Molecules are shown by their SMILES. Where only a bound is given, the exact number is not on record here.

Sequence of Cyclin-dependent kinase 1 (P06493 whole entry): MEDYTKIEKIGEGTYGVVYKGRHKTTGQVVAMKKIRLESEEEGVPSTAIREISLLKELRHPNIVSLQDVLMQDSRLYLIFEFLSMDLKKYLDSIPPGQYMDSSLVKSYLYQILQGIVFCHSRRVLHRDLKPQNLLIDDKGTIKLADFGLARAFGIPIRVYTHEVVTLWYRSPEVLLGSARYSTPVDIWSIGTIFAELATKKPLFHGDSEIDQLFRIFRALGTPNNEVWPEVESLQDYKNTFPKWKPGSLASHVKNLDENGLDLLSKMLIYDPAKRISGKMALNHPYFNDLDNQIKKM

The target in one experiment is Glycogen synthase kinase-3 beta (Homo sapiens, UniProt P49841). Put plainly: Inhibition of human recombinant GSK3-beta using gamma[33P]-ATP after 30 mins by scintillation proximity assay.
Sequence of Glycogen synthase kinase-3 beta (P49841 whole entry): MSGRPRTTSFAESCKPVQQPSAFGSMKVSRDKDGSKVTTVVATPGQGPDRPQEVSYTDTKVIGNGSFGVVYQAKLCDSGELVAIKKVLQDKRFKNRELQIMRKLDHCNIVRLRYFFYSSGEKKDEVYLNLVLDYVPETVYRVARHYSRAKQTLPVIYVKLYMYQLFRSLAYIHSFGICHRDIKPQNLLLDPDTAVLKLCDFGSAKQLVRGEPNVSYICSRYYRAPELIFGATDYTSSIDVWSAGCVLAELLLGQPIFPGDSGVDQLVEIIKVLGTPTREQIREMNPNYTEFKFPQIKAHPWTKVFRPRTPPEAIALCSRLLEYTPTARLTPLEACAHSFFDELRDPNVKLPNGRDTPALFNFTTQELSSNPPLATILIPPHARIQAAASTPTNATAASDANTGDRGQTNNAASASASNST
Take `CCCC(=O)Nc1n[nH]c2cc(Cl)ccc12`: the IC50 is 0.354 µM.
Consider `CCCC(=O)Nc1n[nH]c2c(F)c(Cl)c(-c3ccccc3)cc12`, for which the IC50 was found to be 0.006 µM.
`CCCC(=O)Nc1n[nH]c2cc(-c3ccc(O)c(O)c3)ccc12`: the IC50 is 0.027 µM.
`CCCC(=O)Nc1n[nH]c2cc(-c3ccc(OCc4ccccc4)cc3)ccc12`: the IC50 was 1.18 µM.
For the compound `CCCC(=O)Nc1n[nH]c2cc(-c3ccc(CC)cc3)ccc12`, the concentration for half-maximal inhibition (IC50) was over 100 µM.
In the case of `CCCC(=O)Nc1n[nH]c2cc(-c3ccc(O)cc3)c(-c3ccc(O)cc3)cc12`, the IC50 was 0.056 µM.
On the same count and under the same terms, as for `CCCC(=O)Nc1n[nH]c2cc(Cl)c(-c3ccncc3)cc12`, the figure is 0.05 µM.
Consider `CCCC(=O)Nc1n[nH]c2cc(-c3ccc(O)cc3)c(-c3ccccc3)cc12`, for which the IC50 came out at 0.055 µM.
Consider `CCCC(=O)Nc1n[nH]c2cc(Cc3ccccc3)ccc12`, for which the IC50 was 4.14 µM.
Regarding `CCCC(=O)Nc1n[nH]c2cc(Cl)c(-c3ccc(F)cc3)cc12`, the IC50 is 0.022 µM.
For the compound `CCCC(=O)Nc1n[nH]c2cc(-c3ccc(SC)cc3)ccc12`, the IC50 stood at 7.16 µM.
Take `CCCC(=O)Nc1n[nH]c2cc(-c3ccc(F)cc3)ccc12`: the IC50 is 5.01 µM.
As to `CCCC(=O)Nc1n[nH]c2cc(Cl)c(-c3ccc(O)cc3)cc12`, the IC50 stood at 0.01 µM.
As for `CCCC(=O)Nc1n[nH]c2cc(C(F)(F)F)ccc12`, the IC50 was determined as 0.195 µM.
On the same count and under the same terms, the figure for `CCCC(=O)Nc1n[nH]c2cc(-c3ccc(OC)cc3)ccc12` is over 100 µM; for `CCCC(=O)Nc1n[nH]c2cc(-c3ccc(N)nc3)ccc12` it is 1.09 µM; for `CCCC(=O)Nc1n[nH]c2cc(-c3ccc(Cl)cc3)ccc12` it is over 100 µM.
For `CCCC(=O)Nc1n[nH]c2cc(-c3ccc(N(C)C)cc3)ccc12`, the IC50 worked out at 12.2 µM.
Turning to `CCCC(=O)Nc1n[nH]c2cc(Cl)c(-c3ccc(OCc4ccccc4)cc3)cc12`, the IC50 came to 0.023 µM.
Consider `CCCC(=O)Nc1n[nH]c2cc(-c3ccc(C(F)(F)F)cc3)ccc12`, for which the IC50 was found to be 10.5 µM.
The same measure, in the same setting: as for `CCCC(=O)Nc1n[nH]c2cc(-c3ccoc3)ccc12`, the figure is 0.26 µM; as for `CCCC(=O)Nc1n[nH]c2cc(-c3ccccc3)c(-c3ccccc3)cc12`, 1.72 µM.
With `Cc1ccc(-c2ccc3c(NC(=O)CCC(=O)O)n[nH]c3c2)cc1`, the IC50 was determined as 17.1 µM.
For the compound `CCCC(=O)Nc1n[nH]c2c(Cl)c(Cl)c(-c3ccccc3)cc12`, the IC50 was determined as 0.012 µM.
For the compound `CCCC(=O)Nc1n[nH]c2cc(Cl)c(-c3ccc(CC)cc3)cc12`, the IC50 turned out to be 0.012 µM.
Regarding `CCCC(=O)Nc1n[nH]c2cc(-c3ccc(O)cc3)c(Br)cc12`, the IC50 turned out to be 0.005 µM.
For `CCCC(=O)Nc1n[nH]c2cc(-c3ccc([N+](=O)[O-])cc3)ccc12`, the IC50 was over 100 µM.
Turning to `CCCC(=O)Nc1n[nH]c2cc(-c3ccncc3)ccc12`, the IC50 was determined as 0.661 µM.
As to `CCCC(=O)Nc1n[nH]c2cc(-c3ccc(Oc4ccccc4)cc3)c(-c3ccc(Oc4ccccc4)cc3)cc12`, the IC50 is over 10 µM.
As to `CCCC(=O)Nc1n[nH]c2cc(-c3ccc(O)cc3Cl)ccc12`, the IC50 came to 0.055 µM.
With `O=C(O)CCC(=O)Nc1n[nH]c2cc(Cl)ccc12`, the IC50 was 1.18 µM.
On the same count and under the same terms, the figure for `CCCC(=O)Nc1n[nH]c2cc(-c3ccc(O)nc3)ccc12` is 16.8 µM; for `CCCC(=O)Nc1n[nH]c2cc(-c3cccc(O)c3)ccc12` it is 0.094 µM; for `CCCC(=O)Nc1n[nH]c2cc(-c3cc(Cl)cc(Cl)c3)ccc12` it is 5.41 µM.
Consider `CCCC(=O)Nc1n[nH]c2cc(-c3ccc(O)cc3)c(-c3cccnc3)cc12`, for which the IC50 turned out to be 0.149 µM.
`CCCC(=O)Nc1n[nH]c2cc(Cl)c(-c3ccccc3)cc12`: the IC50 was found to be 0.007 µM.
Consider `CCCC(=O)Nc1n[nH]c2cc(-c3ccc(O)cc3)c(-c3ccco3)cc12`, for which the IC50 worked out at 0.014 µM.
On to `CCCC(=O)Nc1n[nH]c2cc(CCc3ccccc3)ccc12`, for which the IC50 is 8.53 µM.
On to `C/C=C/c1ccc2c(NC(=O)CCC)n[nH]c2c1`, for which the IC50 is 2.46 µM.
As for `CCCC(=O)Nc1n[nH]c2cc(-c3ccc4c(c3)COO4)ccc12`, the IC50 is 25 µM.
The same measure, in the same setting: the figure for `CCCC(=O)Nc1n[nH]c2cc(-c3ccc(O)cc3)c(-c3ccoc3)cc12` is 0.098 µM; for `CCCC(=O)Nc1n[nH]c2cc(Cl)c(-c3ccc([N+](=O)[O-])cc3)cc12` it is 0.018 µM; for `CCCC(=O)Nc1n[nH]c2cc(-c3ccccc3Cl)ccc12` it is 1.35 µM.
As to `CCCC(=O)Nc1n[nH]c2cc(Cl)c(-c3ccoc3)cc12`, the IC50 amounted to 0.011 µM.
With `CCCC(=O)Nc1n[nH]c2cc(-c3ccc(O)cc3)ccc12`, the IC50 is 0.044 µM.
On the same count and under the same terms, the figure for `CCCC(=O)Nc1n[nH]c2cc(-c3ccc(N)cc3)ccc12` is 0.076 µM; for `CCCC(=O)Nc1n[nH]c2cc(Cl)c(-c3ccc(N)cc3)cc12` it is 0.008 µM.
`CCCC(=O)Nc1n[nH]c2cc(-c3ccc(C(C)(C)C)cc3)ccc12`: the IC50 came to 3.81 µM.
As for `N#Cc1ccc(-c2ccc3c(NC(=O)CCC(=O)O)n[nH]c3c2)cc1`, the IC50 was 20.5 µM.
As to `CCCC(=O)Nc1n[nH]c2cc(Br)ccc12`, the IC50 worked out at 0.198 µM.
The same measure, in the same setting: the figure for `CCCC(=O)Nc1n[nH]c2cc(-c3cc(F)cc(F)c3)ccc12` is 2.89 µM; for `CCCC(=O)Nc1n[nH]c2cc(-c3ccc(OC(F)(F)F)cc3)ccc12` it is 5.5 µM.
Still for that read-out and setting: as for `CCCC(=O)Nc1n[nH]c2cc(-c3ccccc3)ccc12`, the figure is 1.28 µM; as for `CCCC(=O)Nc1n[nH]c2cc(-c3ccsc3)ccc12`, 0.935 µM.
As to `CCCC(=O)Nc1n[nH]c2cc(Cl)c(-c3ccc(C)cc3)cc12`, the IC50 was determined as 0.014 µM.
On to `CCCC(=O)Nc1n[nH]c2cc(-c3ccc(O)cc3)c(-c3ccc(CC)cc3)cc12`, for which the IC50 is 0.049 µM.

The target in the next experiment is Microtubule-associated protein tau (Rattus norvegicus, UniProt P19332). Put plainly: Inhibition of Tau phosphorylation in rat cerebral cortex after 120 mins by chemiluminescence assay. The experiment is classed as tissue-based.
Sequence of Microtubule-associated protein tau (P19332 whole entry): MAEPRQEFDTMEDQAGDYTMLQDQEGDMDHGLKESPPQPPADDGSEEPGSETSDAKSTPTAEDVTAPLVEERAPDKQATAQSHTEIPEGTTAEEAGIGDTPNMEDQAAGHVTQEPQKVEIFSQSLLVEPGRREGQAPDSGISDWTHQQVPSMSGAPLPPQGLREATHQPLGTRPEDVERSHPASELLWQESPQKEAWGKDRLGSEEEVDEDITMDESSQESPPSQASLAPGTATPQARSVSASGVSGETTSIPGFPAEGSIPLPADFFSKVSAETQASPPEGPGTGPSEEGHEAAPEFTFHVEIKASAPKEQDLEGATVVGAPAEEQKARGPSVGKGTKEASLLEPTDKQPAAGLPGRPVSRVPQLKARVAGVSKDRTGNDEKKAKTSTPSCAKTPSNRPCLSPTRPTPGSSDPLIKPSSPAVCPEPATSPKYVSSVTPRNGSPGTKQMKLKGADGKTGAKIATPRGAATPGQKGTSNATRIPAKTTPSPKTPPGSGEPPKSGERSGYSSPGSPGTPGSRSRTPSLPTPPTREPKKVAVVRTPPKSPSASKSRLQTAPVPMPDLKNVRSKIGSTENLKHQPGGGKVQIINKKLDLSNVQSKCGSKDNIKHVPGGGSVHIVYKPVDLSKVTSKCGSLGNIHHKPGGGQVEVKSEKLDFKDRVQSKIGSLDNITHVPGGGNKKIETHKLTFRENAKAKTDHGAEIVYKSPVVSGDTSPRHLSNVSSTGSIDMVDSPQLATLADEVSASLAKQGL
`CCCC(=O)Nc1n[nH]c2c(F)c(Cl)c(-c3ccccc3)cc12` showed an IC50 of 0.25 µM.
`CCCC(=O)Nc1n[nH]c2cc(Cl)c(-c3ccccc3)cc12`: it took 0.4 µM to reach half-maximal inhibition (IC50).

Another experiment concerns the target Cyclin-dependent kinase 1 (Homo sapiens, UniProt P06493). Put plainly: Inhibition of Cdk1.
As for `CCCC(=O)Nc1n[nH]c2c(F)c(Cl)c(-c3ccccc3)cc12`, the IC50 is 2.5 µM.
As to `CCCC(=O)Nc1n[nH]c2cc(Cl)c(-c3ccccc3)cc12`, the IC50 stood at 0.1 µM.

The next experiment deals with Cyclin-dependent kinase 2 (Homo sapiens, UniProt P24941).
Test: not given
In turn, `CCCC(=O)Nc1n[nH]c2c(F)c(Cl)c(-c3ccccc3)cc12` returned a concentration for half-maximal inhibition (IC50) of 3.16 µM.
The same measure, in the same setting: as for `CCCC(=O)Nc1n[nH]c2c(Cl)c(Cl)c(-c3ccccc3)cc12`, the figure is over 10 µM.

The next experiment deals with Aurora kinase A (Homo sapiens) (UniProt O14965). Put plainly: Inhibition of Aurora kinase 2.
Sequence of Aurora kinase A (Homo sapiens) (O14965 whole entry, looked up): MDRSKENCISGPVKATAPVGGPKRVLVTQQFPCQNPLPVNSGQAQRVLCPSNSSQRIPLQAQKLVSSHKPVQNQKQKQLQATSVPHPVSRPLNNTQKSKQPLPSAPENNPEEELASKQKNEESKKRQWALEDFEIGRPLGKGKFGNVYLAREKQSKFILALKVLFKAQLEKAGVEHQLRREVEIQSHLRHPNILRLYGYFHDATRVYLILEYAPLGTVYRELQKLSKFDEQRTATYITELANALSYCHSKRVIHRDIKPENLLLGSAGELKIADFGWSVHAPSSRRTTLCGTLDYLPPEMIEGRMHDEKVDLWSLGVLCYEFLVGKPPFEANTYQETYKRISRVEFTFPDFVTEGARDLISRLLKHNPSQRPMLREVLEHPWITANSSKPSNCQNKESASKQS
`CCCC(=O)Nc1n[nH]c2cc(-c3ccc(O)cc3)ccc12` gave an IC50 of over 30 µM.

The record behind these values is ChEMBL document CHEMBL1155393, “Rational design of potent GSK3beta inhibitors with selectivity for Cdk1 and Cdk2” (Bioorg Med Chem Lett, 2010).
